How the values were obtained:
[1] = Solid stability at T = 60° C. in atmosphere with 60% relative humidity (HPLC); assay type: physicochemical; set-up: Impurity RRt = 1.05 / Impurity RRt = 1.34 / Diester impurity: unit not given here
Experimental: In confirmation thereof, another stability test was carried out at 60° C. on the crystallized solid product, whose results are reported in Table 2. In detail, the experiment consists of introducing a sample of fesoterodine fumarate in an oven capable of maintaining a temperature of 60° C. and 60% relative humidity, drawing samples of the freshly introduced substance (time 0) after 24, 48, 72 and 144 hours staying in such conditions, and analyzing them in HPLC in order to verify their purity.

[2] = Solution stability in methylethylketone at T = 40° C. (HPLC); assay type: physicochemical
Experimental: In detail, the experiment related to Table 1 consists of dissolving fesoterodine fumarate in methylethylketone at 40° C., drawing samples of the freshly dissolved solution (time 0), after 1, 3 and 20 hours of maintenance at 40° C. and analyzing them in HPLC in order to verify their purity.

(R)-feso-deacyl ([1]; t = 0): 0.02%
Diester impurity ([1]; t = 0): 0.04
Feso fumaric ester impurity ([1]; t = 0): 0.09
HPLC Purity ([1]; t = 0): 99.85 Area %
(R)-feso-deacyl ([1]; t = 24 h): 0.02%
Diester impurity ([1]; t = 24 h): 0.04
Feso fumaric ester impurity ([1]; t = 24 h): 0.11
HPLC Purity ([1]; t = 24 h): 99.83 Area %
(R)-feso-deacyl ([1]; t = 48 h): 0.02%
Diester impurity ([1]; t = 48 h): 0.04
Feso fumaric ester impurity ([1]; t = 48 h): 0.12
HPLC Purity ([1]; t = 48 h): 99.74 Area %
Impurity RRt = 1.34 ([1]; t = 48 h): 0.08
(R)-feso-deacyl ([1]; t = 72 h): 0.03%
Diester impurity ([1]; t = 72 h): 0.04
Feso fumaric ester impurity ([1]; t = 72 h): 0.13
HPLC Purity ([1]; t = 72 h): 99.72 Area %
Impurity RRt = 1.05 ([1]; t = 72 h): 0.02
Impurity RRt = 1.34 ([1]; t = 72 h): 0.06
(R)-feso-deacyl ([1]; t = 144 h): 0.05%
Diester impurity ([1]; t = 144 h): 0.04
Feso fumaric ester impurity ([1]; t = 144 h): 0.14
HPLC Purity ([1]; t = 144 h): 99.64 Area %
Impurity RRt = 1.05 ([1]; t = 144 h): 0.03
Impurity RRt = 1.34 ([1]; t = 144 h): 0.07
RRt = 1.86 ([1]; t = 144 h): 0.03%
Feso fumaric ester impurity ([2]; t = 0): 0.07
HPLC Purity ([2]; t = 0): 99.87 Area %
Impurity RRt = 1.34 ([2]; t = 0): 0.06
Feso fumaric ester impurity ([2]; t = 1 hour): 0.09
HPLC Purity ([2]; t = 1 hour): 99.85 Area %
Impurity RRt = 1.34 ([2]; t = 1 hour): 0.06
(R)-feso-deacyl ([2]; t = 3 hours): 0.01%
Diester impurity ([2]; t = 3 hours): 0.04
Feso fumaric ester impurity ([2]; t = 3 hours): 0.12
HPLC Purity ([2]; t = 3 hours): 99.77 Area %
Impurity RRt = 1.34 ([2]; t = 3 hours): 0.06
(R)-feso-deacyl ([2]; t = 20 hours): 0.02%
Diester impurity ([2]; t = 20 hours): 0.06
Feso fumaric ester impurity ([2]; t = 20 hours): 0.14
HPLC Purity ([2]; t = 20 hours): 99.70 Area %
Impurity RRt = 1.34 ([2]; t = 20 hours): 0.08
SMILES: CC(C)C(=O)Oc1ccc(CO)cc1[C@H](CCN(C(C)C)C(C)C)c1ccccc1.O=C(O)/C=C/C(=O)O [fesoterodine fumarate, 2-((R)-3-diisopropylammonium-1-phenylpropyl)-4-(hydroxymethyl) phenyl isobutyrate hydrogen fumarate]

Reference: patent publication US20140303396A1, “Method for Preparing High-Purity Fesoterodine Fumarate” (CHEMI S.P.A., priority 2009, published 2014)
